Reference: US11896589B2, “Diazinyl amino acridines and medical uses thereof” (MyCural Therapeutics AB, priority 2018, dated 2024)
Where two headings read alike, the source gives them in different places.

How the values were obtained:
[1] = tested on: human MYCN-amplified SK-N-DZ neuroblastoma xenograft tumors; test: In vivo mouse xenograft tumor model; conditions: 20 mg/kg i.p. daily, 1-2 weeks
Description: SK-N-DZ MYCN-amplified neuroblastoma xenograft tumors reaching a volume of 100-200 mm^3 were treated with Example 1 (20 mg/kg body weight) or vehicle injected i.p. daily for 1-2 weeks. A) Apoptosis was determined by TUNEL staining of tumor tissues from mice treated with Example 1 or vehicle, counterstained with DAPI. Quantification of TUNEL staining was normalized to whole tumor areas as determined by DAPI from three Example 1- and three vehicle-treated mice. Student's t-test of Example 1 vs. vehicle; p=0.0083. B) Cell proliferation determined by Ki67 of tumor tissues from mice treated with Example 1 or vehicle, respectively, and counterstained with DAPI. Quantification of Ki67 negative areas normalized to whole tumor areas by DAPI from three Example 1- and three vehicle-treated mice. Student's t-test of Example 1 vs. vehicle; p=0.0380. C) Microvascular density visualized by CD31 staining in the red. C) Quantification of CD31 staining normalized to whole tumor areas from three Example 1- and three vehicle-treated mice. Student's t-test of Example 1 vs. vehicle; p=0.014. D) Detection of MYCN:MAX protein interaction by isPLA performed on tumor tissue from mice treated with Example 1 or vehicle using antibodies against MYCN and MAX. Quantification of MYCN:MAX isPLA signals in tumor tissue from Example 1- and vehicle-treated mice, presented as average number of dots from four randomly chosen microscopic fields from Example 1 treated mice normalized to corresponding values from vehicle-treated mice (F=28.102, P=0.008). E) Apoptosis determined from TUNEL stained tumor section derived from a MDA-MB231 xenograft mouse treated with Example 2 for 2 weeks. Quantification of apoptotic cells per counted field.
To validate the efficacy of Example 1 in tumor tissue in vivo, we utilized a mouse xenograft tumor model based on human MYCN-amplified SK-N-DZ neuroblastoma cells. Tumor cells (5×10^6) were injected into the flank of athymic nude mice and allowed to form tumors after which Example 1 or vehicle were administered by daily intraperitoneal injection at a dose of 20 mg/kg body weight for 1-2 weeks.

MYCbHLHZip = biological target: T1, MYCbHLHZip (Homo sapiens, UniProt P01106); test: Assay 2B MYC SPR assay; assay type: binding
T1 construct: An amino coupling procedure was used to immobilize MYCbHLHZip protein on a CM5 sensor chip
T1 sequence (P01106 368-449 limits assumed): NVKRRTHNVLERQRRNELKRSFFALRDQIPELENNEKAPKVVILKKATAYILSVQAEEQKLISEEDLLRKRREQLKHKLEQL
Description: FIG. 3: A) SPR assay to determine affinity of Example 1 to MYC. MYC bHLHZip protein was immobilized by aminocoupling on a CM5 sensor chip. Example 1 was injected at various concentrations in a kinetic experiment. The reference surface was subtracted from the analyte surface to generate a sensorgram. […] B) Four MYC equilibrium binding experiments with Example 1 summarized in an equilibrium binding plot. […] Equilibrium binding experiments of MYC with Example 2 and control compound (non-binder) were plotted as well. Assay 2B. MYC SPR Assay To analyze the direct binding of compounds to MYC, the direct binding of compounds to MYC was detected by surface plasmon resonance (SPR) as described above (Biological example 1—Assay 1B). An amino coupling procedure was used to immobilize MYCbHLHZip protein on a CM5 sensor chip (GE Healthcare) resulting in immobilization levels of approximately 800 respectively 1000 RU. The compounds were injected at different concentrations, one at a time, over the surface for 50-80 seconds with a flow rate of 30 μl/min. Afterwards the compounds were allowed to dissociate for 240 seconds in running buffer (137 mM NaCl, 2.7 mM KCl, 10 mM Na2HPO4, 1.8 mM KH2PO4, 0.005% Tween-20, 1% DMSO, pH 7.4). To remove all remaining analyte the surface was regenerated with 2M Urea for 30 seconds and thereafter 1M NaCl, 2.7 mM KCl, 10 mM Na2HPO4, 1.8 mM KH2PO4, 1% DMSO, pH 7.4 for 30 seconds. Sensorgrams were generated by subtraction of the reference (blank immobilized) surface. Binding responses were related to respective compounds' Rmax. Rmax is the maximum response of a compound when it binds with a 1:1 stochiometry to the protein; Rmax=(MW analyte/MW ligand)×immobilized ligand level on the chip (RU) x stoichiometry (1:1). Kinetic experiments were carried out where recombinant MYC bHLHZip was immobilized on the chip and different concentrations of Example 1 were injected as above. […] Example 2-6 were analyzed for their MYC binding properties by equilibrium binding experiments as described for example 1.

[2] = tested on: MYC-ER driven transcription of ODC1, RSG16, CR2 in U2OS-MYC-ER cells; test: Assay 4 MYC target gene expression (RT-qPCR); assay type: cell-based
Description: FIG. 5: A) Inhibition of MYC transactivation of target genes (A) ODC1, (B) RSG16, and (C) CR2 as determined by RT-qPCR analysis, based on three biological experiments with three technical repeats each. U2OS-MYC-ER cells were treated with or without 100 nM 4-hydroxy-tamoxifen (HOT) for 4 hours, after which DMSO or Example 1 was added for 24 hours before total RNA was extraction. Fold changes in mRNA expression are presented relative to DMSO in non-HOT-treated cells after normalization to GAPDH, used as reference gene. Assay 4: Gene Expression To investigate the effect of the compounds on MYC-driven transcription, we utilized U2OS cells containing a MYC-estrogen receptor (MYC-ER) fusion protein, the activity of which is regulated by the ligand 4-hydroxytamoxifen (HOT). RT-qPCR was performed essentially as described in Bahram, F. et al. Interferon-gamma-induced p27KIP1 binds to and targets MYC for proteasome-mediated degradation. Oncotarget 7, 2837-2854, doi:10.18632/oncotarget.6693 (2016).

## CCOc1ccc2nc3cc(/N=N/c4ccc(N)nc4N)ccc3c(N)c2c1 [Example 1, 3-((9-amino-7-ethoxyacridin-3-yl)diazenyl)pyridine-2,6-diamine sulphate hydrate]
[1]
  CD31 Decrease in microvascular density: 44 % of vehicle
  Ki67 Increase in Ki67-negative tumor area relative to vehicle: 550%
  MYCN:MAX interactions in tumors (isPLA) vs vehicle: significant reduction
  MYCN:MAX isPLA signal relative to vehicle: 66 % of vehicle
  TUNEL Increase in apoptotic tumor area relative to vehicle: 1420%
  apoptotic tumor areas (TUNEL) vs vehicle: dramatic increase
  microvascular density (CD31) vs vehicle: significantly reduced
  non-proliferative areas (Ki67) vs vehicle: significant increase
MYCbHLHZip; 1:1 Langmuir model, read-out: KD (average of four kinetic experiments)
  Kd: 1600 ± 500 nM
MYCbHLHZip; Langmuir 1:1, constant Rmax 43 RU, read-out: KD (one representative kinetic experiment)
  Kd: 2500 nM
MYCbHLHZip; equilibrium binding experiments
  Binding relative to Rmax: 1.6 Response Units
MYCbHLHZip; representative kinetic experiment, read-out: association rate ka
  kon: 9290 M⁻¹ s⁻¹
MYCbHLHZip; representative kinetic experiment, read-out: dissociation rate kd
  koff: 0.0229 s⁻¹
[2]; 10 μM
  inhibition of gene expression, CR2 gene: 100%
  inhibition of gene expression, ODC1 gene: 100%
  inhibition of gene expression, RSG16 gene: 68%
[2]; 24 hours
  HOT-induced expression of all three MYC target genes: significantly reduced
